# Reference: US10407488B2, “Therapy for treatment or prevention of conditions associated with bleeding or hypocoagulation” (THE REGENTS OF THE UNIVERSITY OF CALIFORNIA, priority 2013, dated 2019)
# Assays:
# [1] = tested on: FVIII-deficient mice; experiment: Tail clip bleeding assay in FVIII-deficient mice; type: in vivo, mouse; conditions: 20 minutes
# Protocol: Mice were anesthetized with Isoflurane 3%, placed on temperature controlled heating pads (37° C.), and the distal portion of the tail was cut at 1.5 mm diameter after which the tail was immersed in a predefined volume of 37° C. saline (0.9% NaCl) for 20 minutes. To study effects on bleeding and clot stability, tubes were changed after 10 minutes to collect blood for the first and second 10 minutes separately. Blood loss was determined by the hemoglobin concentration in the saline solution after red cell lysis with 2% acetic acid and measured by absorbance at 490 nm. Using a hemoglobin standard derived from defined blood volumes, blood loss was calculated assuming a hematocrit of 46% and expressed in μL/g body weight. Groups of Balb/c mice were injected intravenously (tail vein) with equal volumes (200 μL) of ^superFVa or saline 2 minutes prior to intravenous injection of rhAPC (Xigris®). Immediately after APC injection tail cut was performed. All agents were diluted in sterile sodium chloride 0.9% for injection (Hospira Inc).
# Mice were anesthetized, placed on temperature controlled heating pads (37° C.), and the distal portion of the tail was cut at 1.5 mm diameter after which the tail was immersed in a predefined volume of 37° C. saline (0.9% NaCl) for 20 minutes. Blood loss was determined by the hemoglobin concentration in the saline solution after red cell lysis with 2% acetic acid and measured by absorbance at 405 nm. Using a hemoglobin standard derived from defined blood volumes, blood loss was calculated assuming a hematocrit of 46% and expressed in μL/g body weight. Groups of FVIII-deficient mice were injected intravenously (retro-orbital) within 2 minutes prior to tail cut with equal volumes ([…]) of sterile saline for injection (0.9%, Hospira Inc.), rhFVIII 200 units/kg FVIII (Xyntha®, Pfizer, NY, N.Y., USA) ^superFVa, rhFVIIa (NovoSeven®, NovoNordisk, Bagsvaerd, Denmark) or a combination of ^superFVa and rhFVIIa. All agents were diluted in sterile sodium chloride 0.9% for injection (Hospira Inc). […]
# [2] = tested on: thrombin generation in patient plasma; experiment: Thrombin generation in plasma of inhibitor patients before and 5 minutes after rhFVIIa infusion, ^superFVa added ex vivo; type: biochemical, human
# From the text: Normal pooled human plasma and plasma from human FVIII-deficient patients with and without inhibitors (titer specified in Bethesda Units (BU)) was purchased from George King Bio-Medical (Overland Park, Kans., USA). In addition, plasma and clinical information was obtained from two patients with severe FVIII-deficiency (<1% intrinsic FVIII-activity levels) and inhibitors (titers determined in BU by the clinical laboratory using the Nijmegen assay (17) regularly visiting the Hemophilia Treatment Center at the University of California, San Diego (UCSD) after informed consent was obtained. Patient confidentiality safeguards, sample and data acquisition methods were approved by the UCSD Institutional Review Board. Blood was drawn into 3.8% sodium citrate (pH 5.5) at a 9:1 blood/anticoagulant volume ratio, and processed immediately. Plasma was collected and frozen at −80° C. after centrifugation at 2600×g for 15 minutes. The following reagents were used: Thrombin from Enzyme Research Laboratories (South Bend, Ind., USA), hirudin from Calbiochem (San Diego, Calif., USA), Corn trypsin inhibitor (CTI) from Enzyme Research Laboratories, thrombin calibrator from Synapse BV (distributed by Diagnostica Stago), Substrate Z-Gly-Gly-Arg-AMC from Bachem (Bubendorf Switzerland), recombinant human tissue factor (TF), Dade Innovin from Dade Behring (Newark, Del., USA), mouse anti-human FVIII (GMA8015) and isotype antibody (GMA650) from Green mountain antibodies (Burlington, Vt., USA), recombinant human FVIIa, NovoSeven®, from NovoNordisk (Bagsvaerd, Denmark), Phospholipid vesicles (80% phosphatidylcholine (PC), 20% phosphatidylserine (PS)) were purchased from Avanti Lipids (Alabaster, Ala., USA) and prepared as described (18).
# Endogenous thrombin potential (ETP) assays were performed as described (19). Briefly, plasma samples supplemented with CTI, TF, PCPS vesicles and coagulation factors were preincubated with the plasma at 37° C. Thrombin generation was initiated by addition of CaCl2 and Z-Gly-Gly-Arg-AMC in HBS/0.5% BSA. The final reaction mixture contained, 50% plasma, 0.2 pM TF, […] PCPS vesicles, 0.725 μM CTI, 0.5 mM Z-GGR-AMC and 7.6 mM CaCl2 in a total volume of 100 μL. In some experiments, 1.25 μg/ml anti-FVIII antibody was added to the plasma and ETP was determined after 1 hour of preincubation. Fluorescence was measured at excitation/emission wavelengths of […] using Gemini EM fluorescent plate reader (Molecular Devices). Fluorescence time course data were converted to nM thrombin as described (20). ETP, defined as the area under the curve (AUC) and the peak height were determined using Origin or GraphPad Prism software.
# This example relates to the experiments the results of which are contained in FIG. 5. […]
# [3] = tested on: aPTT clotting time in human plasma; experiment: aPTT clotting assay in human plasma with rhAPC; type: biochemical
# Protocol: APC-mediated inactivation of FVa was analyzed in ETP assays and aPTT clotting assays. FVa mutants were incubated with equal volumes of either recombinant human APC (Xigris®) or buffer in human and murine Balb/c plasma.
# Plasma (50 μL) was mixed with 50 μL of a PTT reagent (APTT-XL, Pacific Hemostasis) and incubated at 37° C. for 3 minutes in the presence of FVa either with recombinant human APC or buffer. Following addition of 25 μL of 50 mM CaCl2 in HBS, 0.5% BSA, the clotting time was recorded using an ST4 coagulometer (Diagnostica Stago).
# [4] = tested on: thrombin generation in plasma of patients with congenital FVIII-deficiency and inhibitors; experiment: Thrombin generation in plasma of patients with congenital FVIII-deficiency and high titer inhibitors, spiked in vitro; type: biochemical, human; conditions: factor alone; five patient samples, BU-titer 41-280
# From the text: Normal pooled human plasma and plasma from human FVIII-deficient patients with and without inhibitors (titer specified in Bethesda Units (BU)) was purchased from George King Bio-Medical (Overland Park, Kans., USA). In addition, plasma and clinical information was obtained from two patients with severe FVIII-deficiency (<1% intrinsic FVIII-activity levels) and inhibitors (titers determined in BU by the clinical laboratory using the Nijmegen assay (17) regularly visiting the Hemophilia Treatment Center at the University of California, San Diego (UCSD) after informed consent was obtained. Patient confidentiality safeguards, sample and data acquisition methods were approved by the UCSD Institutional Review Board. Blood was drawn into 3.8% sodium citrate (pH 5.5) at a 9:1 blood/anticoagulant volume ratio, and processed immediately. […]
# Endogenous thrombin potential (ETP) assays were performed as described (19). […] In some experiments, 1.25 μg/ml anti-FVIII antibody was added to the plasma and ETP was determined after 1 hour of preincubation. Fluorescence was measured at excitation/emission wavelengths of […] using Gemini EM fluorescent plate reader (Molecular Devices). Fluorescence time course data were converted to nM thrombin as described (20). ETP, defined as the area under the curve (AUC) and the peak height were determined using Origin or GraphPad Prism software.
# [5] = increasing ^superFVa added ex vivo, plasma before and 5 minutes after rhFVIIa infusion
substance,measurement,setting,value
"^superFVa: engineered APC-resistant FVa variant (SEQ ID NO:4): R306Q, R506Q, R679Q, Cys609-Cys1691 disulfide, S2183A, B-domain deleted",mean blood loss,[1]; ^superFVa 10 U/kg iv,25.9 µL/g
same,mean blood loss,[1]; ^superFVa 40 U/kg iv,9.7 µL/g
same,mean blood loss,[1]; ^superFVa 200 U/kg iv,2.5 µL/g
same,^superFVa concentration at which ETP plateaued,"[2]; Patient A, BU=64",10 nM
same,additional increase of ETP,[2]; [5],~3 fold
same,additional increase of peak height,[2]; [5],~3 fold
same,^superFVa concentration at which ETP plateaued,[2]; patient with BU=64,1.76 µg/mL
same,aPTT,"[3]; 0.05 U/mL FVa variants, 10 nM APC, human plasma, ~100 seconds without FVa",fully corrected the aPTT
same,lower concentration normalizing the aPTT compared to FVa,[3]; human plasma with APC,100 fold
same,effect on ETP and peak height,[4],increased ETP and peak height in all five patient samples
